# Legend:
# [1] = system: canarygrass (Phalaris minor); experiment: Test D pre-/postemergence: canarygrass; type: in vivo
# Method in brief: (§1)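 Scores run from 0 (no effect) to 100 (complete control), assigned by visual comparison with controls after 14 to 21 days in a controlled environment. Both preemergence application to silt loam and postemergence application to 1- to 4-leaf plants were tested.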
# [2] = system: chickweed (common chickweed, Stellaria media); experiment: Test D pre-/postemergence: chickweed; type: in vivo
# Method in brief: as §1
# [3] = system: bromegrass, downy (downy bromegrass, Bromus tectorum); experiment: Test D pre-/postemergence: bromegrass, downy; type: in vivo
# Method in brief: as §1
# [4] = system: radish, wild (wild radish, Raphanus raphanistrum); experiment: Test D pre-/postemergence: radish, wild; type: in vivo
# Method in brief: as §1
# [5] = system: wheat, winter (winter wheat, Triticum aestivum); experiment: Test D pre-/postemergence: wheat, winter; type: in vivo
# Method in brief: as §1
# [6] = system: velvetleaf (Abutilon theophrasti); experiment: Test F pre-/postemergence: velvetleaf; type: in vivo; conditions: Preemergence
# Method in brief: (§2)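 0–100 visual control scores, taken 14–21 d after application in the greenhouse. Preemergence treatment was made to silt loam soil at sowing. Postemergence sprays hit 1- to 4-leaf plants (2–18 cm) in peat/vermiculite mix. Surfactant-containing non-phytotoxic solvent served as the vehicle.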
# [7] = system: crabgrass, large (large crabgrass, Digitaria sanguinalis); experiment: Test F pre-/postemergence: crabgrass, large; type: in vivo; conditions: Preemergence
# Method in brief: as §2
# [8] = system: foxtail, giant (giant foxtail, Setaria faberii); experiment: Test F pre-/postemergence: foxtail, giant; type: in vivo; conditions: Preemergence
# Method in brief: as §2
# [9] = system: beggarticks (hairy beggarticks, Bidens pilosa); experiment: Test F pre-/postemergence: beggarticks; type: in vivo; conditions: Preemergence
# Method in brief: as §2
# [10] = system: Waterhemp; experiment: Test C preemergence: waterhemp; type: in vivo, Amaranthus rudis; conditions: 125 g ai/ha, scale 0 to 100, 0 no effect, 100 complete control
# [11] = Postemergence, 31 g ai/ha, scale 0 to 100 (0 no effect, 100 complete control)
# [12] = Postemergence, 62 g ai/ha, scale 0 to 100 (0 no effect, 100 complete control)
# [13] = Postemergence, 125 g ai/ha, scale 0 to 100, 0 no effect, 100 complete control
# [14] = Postemergence, 16 g ai/ha, scale 0 to 100
# [15] = Preemergence, 16 g ai/ha, scale 0 to 100, 0 no effect, 100 complete control
# [16] = Preemergence, 31 g ai/ha, scale 0 to 100, 0 no effect, 100 complete control
# [17] = Preemergence, 62 g ai/ha, scale 0 to 100
# [18] = Preemergence, 125 g ai/ha, scale 0 to 100
# [19] = 16 g ai/ha, scale 0 to 100, 0 no effect, 100 complete control
# [20] = 31 g ai/ha, scale 0 to 100, 0 no effect, 100 complete control
structure (smiles),measurement,setting,value
Cc1nn(-c2ccc(C(F)(F)F)c(F)c2)nc1Oc1ccnc(C(F)(F)F)c1 [Compound 148],Plant response rating: Canarygrass,[1]; [11],30
same,Plant response rating: Canarygrass,[1]; [12],20
same,Plant response rating: Canarygrass,[1]; [13],70
same,"Plant response rating, Canarygrass",[1]; [14],10
same,"Plant response rating, Canarygrass",[1]; [15],0
same,"Plant response rating, Canarygrass",[1]; [16],50
same,"Plant response rating, Canarygrass",[1]; [17],60
same,"Plant response rating, Canarygrass",[1]; [18],100
same,Plant response rating: Chickweed,[2]; [11],70
same,Plant response rating: Chickweed,[2]; [12],80
same,Plant response rating: Chickweed,[2]; [13],90
same,"Plant response rating, Chickweed",[2]; [14],60
same,"Plant response rating, Chickweed",[2]; [15],25
same,"Plant response rating, Chickweed",[2]; [16],60
same,"Plant response rating, Chickweed",[2]; [17],70
same,"Plant response rating, Chickweed",[2]; [18],100
same,"Plant response rating: Bromegrass, Downy",[3]; [11],5
same,"Plant response rating: Bromegrass, Downy",[3]; [12],15
same,"Plant response rating: Bromegrass, Downy",[3]; [13],20
same,"Plant response rating, Bromegrass, Downy",[3]; [14],5
same,"Plant response rating, Bromegrass, Downy",[3]; [15],0
same,"Plant response rating, Bromegrass, Downy",[3]; [16],0
same,"Plant response rating, Bromegrass, Downy",[3]; [17],10
same,"Plant response rating, Bromegrass, Downy",[3]; [18],20
same,"Plant response rating: Radish, Wild",[4]; [11],100
same,"Plant response rating: Radish, Wild",[4]; [12],100
same,"Plant response rating: Radish, Wild",[4]; [13],100
same,"Plant response rating, Radish, Wild",[4]; [14],90
same,"Plant response rating, Radish, Wild",[4]; [15],10
same,"Plant response rating, Radish, Wild",[4]; [16],20
same,"Plant response rating, Radish, Wild",[4]; [17],100
same,"Plant response rating, Radish, Wild",[4]; [18],100
same,"Plant response rating: Wheat, Winter",[5]; [11],10
same,"Plant response rating: Wheat, Winter",[5]; [12],15
same,"Plant response rating: Wheat, Winter",[5]; [13],25
same,"Plant response rating, Wheat, Winter",[5]; [14],10
same,"Plant response rating, Wheat, Winter",[5]; [15],0
same,"Plant response rating, Wheat, Winter",[5]; [16],5
same,"Plant response rating, Wheat, Winter",[5]; [17],0
same,"Plant response rating, Wheat, Winter",[5]; [18],10
same,"Plant response rating, Velvetleaf",[6]; [19],0
same,"Plant response rating, Velvetleaf",[6]; [20],0
same,"Plant response rating, Velvetleaf","[6]; 125 g ai/ha, scale 0 to 100",25
same,"Plant response rating, Velvetleaf","[6]; 250 g ai/ha, scale 0 to 100",65
same,"Plant response rating, Crabgrass, Large",[7]; [19],95
same,"Plant response rating, Crabgrass, Large",[7]; [20],100
same,"Plant response rating, Crabgrass, Large","[7]; 62 g ai/ha, scale 0 to 100",100
same,"Plant response rating, Crabgrass, Large","[7]; 125 g ai/ha, scale 0 to 100",100
same,"Plant response rating, Crabgrass, Large","[7]; 250 g ai/ha, scale 0 to 100",100
same,"Plant response rating, Foxtail, Giant",[8]; [19],25
same,"Plant response rating, Foxtail, Giant",[8]; [20],95
same,"Plant response rating, Foxtail, Giant","[8]; 62 g ai/ha, scale 0 to 100",100
same,"Plant response rating, Foxtail, Giant","[8]; 125 g ai/ha, scale 0 to 100",100
same,"Plant response rating, Foxtail, Giant","[8]; 250 g ai/ha, scale 0 to 100",100
same,"Plant response rating, Beggarticks",[9]; [19],0
same,"Plant response rating, Beggarticks",[9]; [20],0
same,"Plant response rating, Beggarticks","[9]; 62 g ai/ha, scale 0 to 100",0
same,"Plant response rating, Beggarticks","[9]; 125 g ai/ha, scale 0 to 100",0
same,"Plant response rating, Beggarticks","[9]; 250 g ai/ha, scale 0 to 100",0
CCc1nn(-c2ccc(F)cc2)nc1Cc1ccnc(C(F)(F)F)c1 [Compound 154],"Plant response rating, Velvetleaf",[6]; [19],0
same,"Plant response rating, Velvetleaf",[6]; [20],20
same,"Plant response rating, Velvetleaf","[6]; 125 g ai/ha, scale 0 to 100",40
same,"Plant response rating, Velvetleaf","[6]; 250 g ai/ha, scale 0 to 100",100
same,"Plant response rating, Crabgrass, Large",[7]; [19],50
same,"Plant response rating, Crabgrass, Large",[7]; [20],98
same,"Plant response rating, Crabgrass, Large","[7]; 62 g ai/ha, scale 0 to 100",100
same,"Plant response rating, Crabgrass, Large","[7]; 125 g ai/ha, scale 0 to 100",100
same,"Plant response rating, Crabgrass, Large","[7]; 250 g ai/ha, scale 0 to 100",100
same,"Plant response rating, Foxtail, Giant",[8]; [19],5
same,"Plant response rating, Foxtail, Giant",[8]; [20],65
same,"Plant response rating, Foxtail, Giant","[8]; 62 g ai/ha, scale 0 to 100",100
same,"Plant response rating, Foxtail, Giant","[8]; 125 g ai/ha, scale 0 to 100",100
same,"Plant response rating, Foxtail, Giant","[8]; 250 g ai/ha, scale 0 to 100",100
same,"Plant response rating, Beggarticks",[9]; [19],0
same,"Plant response rating, Beggarticks",[9]; [20],0
same,"Plant response rating, Beggarticks","[9]; 62 g ai/ha, scale 0 to 100",0
same,"Plant response rating, Beggarticks","[9]; 125 g ai/ha, scale 0 to 100",0
same,"Plant response rating, Beggarticks","[9]; 250 g ai/ha, scale 0 to 100",15
same,"Plant response rating, Waterhemp",[10],100
Cc1nn(-c2ccc(F)c(C(F)(F)F)c2)nc1Cc1ccnc(C(F)(F)F)c1 [Compound 156],Plant response rating: Canarygrass,[1]; [11],30
same,Plant response rating: Canarygrass,[1]; [12],65
same,Plant response rating: Canarygrass,[1]; [13],80
same,"Plant response rating, Canarygrass",[1]; [14],15
same,"Plant response rating, Canarygrass",[1]; [15],15
same,"Plant response rating, Canarygrass",[1]; [16],70
same,"Plant response rating, Canarygrass",[1]; [17],100
same,"Plant response rating, Canarygrass",[1]; [18],100
same,Plant response rating: Chickweed,[2]; [11],75
same,Plant response rating: Chickweed,[2]; [12],90
same,Plant response rating: Chickweed,[2]; [13],95
same,"Plant response rating, Chickweed",[2]; [14],60
same,"Plant response rating, Chickweed",[2]; [15],50
same,"Plant response rating, Chickweed",[2]; [16],100
same,"Plant response rating, Chickweed",[2]; [17],100
same,"Plant response rating, Chickweed",[2]; [18],100
same,"Plant response rating: Bromegrass, Downy",[3]; [11],10
same,"Plant response rating: Bromegrass, Downy",[3]; [12],15
same,"Plant response rating: Bromegrass, Downy",[3]; [13],35
same,"Plant response rating, Bromegrass, Downy",[3]; [14],10
same,"Plant response rating, Bromegrass, Downy",[3]; [15],0
same,"Plant response rating, Bromegrass, Downy",[3]; [16],5
same,"Plant response rating, Bromegrass, Downy",[3]; [17],20
same,"Plant response rating, Bromegrass, Downy",[3]; [18],95
same,"Plant response rating: Radish, Wild",[4]; [11],85
same,"Plant response rating: Radish, Wild",[4]; [12],100
same,"Plant response rating: Radish, Wild",[4]; [13],100
same,"Plant response rating, Radish, Wild",[4]; [14],65
same,"Plant response rating, Radish, Wild",[4]; [15],5
same,"Plant response rating, Radish, Wild",[4]; [16],10
same,"Plant response rating, Radish, Wild",[4]; [17],100
same,"Plant response rating, Radish, Wild",[4]; [18],100
same,"Plant response rating: Wheat, Winter",[5]; [11],15
same,"Plant response rating: Wheat, Winter",[5]; [12],15
same,"Plant response rating: Wheat, Winter",[5]; [13],20
same,"Plant response rating, Wheat, Winter",[5]; [14],10
same,"Plant response rating, Wheat, Winter",[5]; [15],0
same,"Plant response rating, Wheat, Winter",[5]; [16],0
same,"Plant response rating, Wheat, Winter",[5]; [17],0
same,"Plant response rating, Wheat, Winter",[5]; [18],5
same,"Plant response rating, Waterhemp",[10],100

# From patent US9302999B2, “Substituted triazoles as herbicides” (E. I. DU PONT DE NEMOURS AND COMPANY, priority 2012, dated 2016)
